According to the supplement of paper PMC10307832:

Assays:
Experiment in all cases: relative viability (nuclei count vs DMSO), 5 days (fraction); higher = more cells survive
Calu-6 = test system: Calu-6
In short: (§1)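 Values are medians from duplicate plates. Each reflects relative viability, defined as the nuclei count of treated wells over that of vehicle wells. Lung cancer cell lines in 1536-well plates were pin-tool dosed one day after seeding with one drug alone or with a fixed anchor-drug dose plus five library-drug doses (not always all listed) in √10 steps, then fixed, stained and imaged at 4× after 5 days.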

IA-LM = test system: IA-LM
In short: as §1

NCI-H1703 = test system: NCI-H1703
In short: as §1

EBC-1 = test system: EBC-1
In short: as §1

NCI-H1437 = test system: NCI-H1437
In short: as §1

NCI-H1355 = test system: NCI-H1355
In short: as §1

LCLC-97TM1 = test system: LCLC-97TM1
In short: as §1

NCI-H1299 = test system: NCI-H1299
In short: as §1

NCI-H596 = test system: NCI-H596
In short: as §1

A549 = test system: A549
In short: as §1

Question: For `Nc1cccc2c1CN(C1CCC(=O)NC1=O)C2=O` (centres undefined) [Lenalidomide] + CC(C)C[C@H](NC(=O)[C@H](Cc1ccccc1)NC(=O)c1cnccn1)B(O)O [Bortezomib] (partner 0.002 µM), which relative viability (Calu-6; first compound 0.253 µM) is on record?
Answer: 1.04

Question: And the relative viability (Calu-6; first compound 0.8 µM)?
Answer: 1.01

Question: And the relative viability (Calu-6; first compound 2.53 µM)?
Answer: 0.997

Question: What about the relative viability (Calu-6; first compound 8 µM) of the same molecule?
Answer: 1.06

Question: What about the relative viability (IA-LM; first compound 0.253 µM) of the same molecule?
Answer: 0.946

Question: What about the relative viability (IA-LM; first compound 0.8 µM) of the same molecule?
Answer: 0.753

Question: And the relative viability (IA-LM; first compound 2.53 µM)?
Answer: 0.884

Question: And the relative viability (IA-LM; first compound 8 µM)?
Answer: 0.764

Question: What about the relative viability (NCI-H1703; first compound 0.253 µM) of the same molecule?
Answer: 0.231

Question: And the relative viability (NCI-H1703; first compound 0.8 µM)?
Answer: 0.399

Question: And the relative viability (NCI-H1703; first compound 2.53 µM)?
Answer: 0.328

Question: And the relative viability (NCI-H1703; first compound 8 µM)?
Answer: 0.47

Question: What about the relative viability (EBC-1; first compound 0.253 µM) of the same molecule?
Answer: 0.653

Question: What about the relative viability (EBC-1; first compound 0.8 µM) of the same molecule?
Answer: 0.589

Question: What about the relative viability (EBC-1; first compound 2.53 µM) of the same molecule?
Answer: 0.684

Question: And the relative viability (EBC-1; first compound 8 µM)?
Answer: 0.564

Question: And the relative viability (NCI-H1437; first compound 0.253 µM)?
Answer: 0.523

Question: What about the relative viability (NCI-H1437; first compound 0.8 µM) of the same molecule?
Answer: 0.571

Question: And the relative viability (NCI-H1437; first compound 2.53 µM)?
Answer: 0.95

Question: And the relative viability (NCI-H1437; first compound 8 µM)?
Answer: 0.501

Question: What about the relative viability (NCI-H1355; first compound 0.253 µM) of the same molecule?
Answer: 1.23

Question: And the relative viability (NCI-H1355; first compound 0.8 µM)?
Answer: 0.426

Question: What about the relative viability (NCI-H1355; first compound 2.53 µM) of the same molecule?
Answer: 1.29

Question: What about the relative viability (NCI-H1355; first compound 8 µM) of the same molecule?
Answer: 1.03

Question: What about the relative viability (LCLC-97TM1; first compound 0.253 µM) of the same molecule?
Answer: 0.673

Question: And the relative viability (LCLC-97TM1; first compound 0.8 µM)?
Answer: 0.514

Question: What about the relative viability (LCLC-97TM1; first compound 2.53 µM) of the same molecule?
Answer: 0.705

Question: And the relative viability (LCLC-97TM1; first compound 8 µM)?
Answer: 0.416

Question: And the relative viability (NCI-H1299; first compound 0.253 µM)?
Answer: 1.03

Question: And the relative viability (NCI-H1299; first compound 0.8 µM)?
Answer: 1.01

Question: And the relative viability (NCI-H1299; first compound 2.53 µM)?
Answer: 1.06

Question: And the relative viability (NCI-H1299; first compound 8 µM)?
Answer: 1.06

Question: What about the relative viability (NCI-H596; first compound 0.253 µM) of the same molecule?
Answer: 0.933

Question: And the relative viability (NCI-H596; first compound 0.8 µM)?
Answer: 0.733

Question: And the relative viability (NCI-H596; first compound 2.53 µM)?
Answer: 1.39

Question: And the relative viability (NCI-H596; first compound 8 µM)?
Answer: 0.883

Question: With `Cc1cn(-c2cc(NC(=O)c3ccc(C)c(Nc4nccc(-c5cccnc5)n4)c3)cc(C(F)(F)F)c2)cn1` [Nilotinib] + Cc1nc(NC(=O)N2CCC[C@H]2C(N)=O)sc1-c1ccnc(C(C)(C)C(F)(F)F)c1 [Alpelisib] (partner 2 µM) as the molecule, how does the relative viability (Calu-6; first compound 0.001 µM) read?
Answer: 1.11

Question: What about the relative viability (Calu-6; first compound 0.01 µM) of the same molecule?
Answer: 1.03

Question: What about the relative viability (Calu-6; first compound 0.03162 µM) of the same molecule?
Answer: 0.989

Question: And the relative viability (Calu-6; first compound 0.1 µM)?
Answer: 0.958

Question: What about the relative viability (IA-LM; first compound 0.001 µM) of the same molecule?
Answer: 0.653

Question: What about the relative viability (IA-LM; first compound 0.003162 µM) of the same molecule?
Answer: 0.679

Question: What about the relative viability (IA-LM; first compound 0.01 µM) of the same molecule?
Answer: 0.781

Question: What about the relative viability (IA-LM; first compound 0.03162 µM) of the same molecule?
Answer: 0.606

Question: And the relative viability (IA-LM; first compound 0.1 µM)?
Answer: 0.963

Question: And the relative viability (NCI-H1703; first compound 0.001 µM)?
Answer: 0.338

Question: What about the relative viability (NCI-H1703; first compound 0.003162 µM) of the same molecule?
Answer: 0.249

Question: And the relative viability (NCI-H1703; first compound 0.01 µM)?
Answer: 0.171

Question: What about the relative viability (NCI-H1703; first compound 0.03162 µM) of the same molecule?
Answer: 0.166

Question: What about the relative viability (NCI-H1703; first compound 0.1 µM) of the same molecule?
Answer: 0.175

Question: And the relative viability (EBC-1; first compound 0.001 µM)?
Answer: 0.787

Question: And the relative viability (EBC-1; first compound 0.003162 µM)?
Answer: 0.796

Question: What about the relative viability (EBC-1; first compound 0.01 µM) of the same molecule?
Answer: 0.811

Question: What about the relative viability (EBC-1; first compound 0.03162 µM) of the same molecule?
Answer: 0.566

Question: What about the relative viability (EBC-1; first compound 0.1 µM) of the same molecule?
Answer: 0.689

Question: And the relative viability (NCI-H1437; first compound 0.001 µM)?
Answer: 0.829

Question: And the relative viability (NCI-H1437; first compound 0.003162 µM)?
Answer: 1.17

Question: What about the relative viability (NCI-H1437; first compound 0.01 µM) of the same molecule?
Answer: 1.39

Question: What about the relative viability (NCI-H1437; first compound 0.03162 µM) of the same molecule?
Answer: 0.75

Question: What about the relative viability (NCI-H1437; first compound 0.1 µM) of the same molecule?
Answer: 0.971

Question: And the relative viability (NCI-H1355; first compound 0.001 µM)?
Answer: 0.764

Question: What about the relative viability (NCI-H1355; first compound 0.003162 µM) of the same molecule?
Answer: 1.08

Question: What about the relative viability (NCI-H1355; first compound 0.01 µM) of the same molecule?
Answer: 0.974

Question: What about the relative viability (NCI-H1355; first compound 0.03162 µM) of the same molecule?
Answer: 0.784

Question: And the relative viability (NCI-H1355; first compound 0.1 µM)?
Answer: 0.931

Question: What about the relative viability (LCLC-97TM1; first compound 0.003162 µM) of the same molecule?
Answer: 0.311

Question: What about the relative viability (LCLC-97TM1; first compound 0.01 µM) of the same molecule?
Answer: 0.279

Question: What about the relative viability (LCLC-97TM1; first compound 0.03162 µM) of the same molecule?
Answer: 0.22

Question: And the relative viability (LCLC-97TM1; first compound 0.1 µM)?
Answer: 0.275

Question: And the relative viability (A549; first compound 0.001 µM)?
Answer: 0.721

Question: What about the relative viability (A549; first compound 0.003162 µM) of the same molecule?
Answer: 0.817

Question: What about the relative viability (A549; first compound 0.01 µM) of the same molecule?
Answer: 1.02

Question: What about the relative viability (A549; first compound 0.03162 µM) of the same molecule?
Answer: 0.543

Question: And the relative viability (A549; first compound 0.1 µM)?
Answer: 0.649

Question: And the relative viability (NCI-H596; first compound 0.001 µM)?
Answer: 0.457

Question: And the relative viability (NCI-H596; first compound 0.003162 µM)?
Answer: 0.541

Question: And the relative viability (NCI-H596; first compound 0.01 µM)?
Answer: 0.481

Question: And the relative viability (NCI-H596; first compound 0.03162 µM)?
Answer: 0.299

Question: And the relative viability (NCI-H596; first compound 0.1 µM)?
Answer: 0.478
